Where two headings read alike, the source gives them in different places.
Tests used:
PAE UFR90 = experiment: Fractional Inhibitory Concentration Index, checkerboard assay; format: cell-based, P. aeruginosa
How it was run: (§1)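 Two-agent checkerboards of 2-fold dilutions in ca-MHB were inoculated at 5.10^5 CFU/mL and incubated 18 h at 35 °C in air, in duplicate; fosfomycin wells also held 25 μg/ml glucose-6-phosphate. FICI calculated as the sum of combination/alone MIC ratios for each drug.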

PAE UFR48 = experiment: as above; format: cell-based, P. aeruginosa
How it was run: as §1

ECO 190317 = experiment: as above; format: cell-based, E. coli
How it was run: as §1

KPN UFR68 = experiment: as above; format: cell-based, K. pneumoniae
How it was run: as §1

ECL P99 = experiment: as above; format: cell-based, E. cloacae
How it was run: as §1

ABA UFR151 = experiment: MIC, broth microdilution (CLSI), substance alone or ATB combined with compound at 4 or 8 μg/mL; format: cell-based, A. baumannii; details: substance alone
How it was run: (§2)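 Antibiotic MICs were determined in presence of fixed compound at 4 or 8 μg/mL, and compound MICs alone, by visual growth inhibition. Inoculum 5·10^5 CFU/mL in ca-MHB, incubated 35 °C for 16-20 h per CLSI-M7-A7. Glucose-6-phosphate (25 μg/ml) added when fosfomycin was tested.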

ABA UFR152 = experiment: as above; format: cell-based, A. baumannii; details: substance alone
How it was run: as §2

ABA UFR158 = experiment: as above; format: cell-based, A. baumannii; details: substance alone
How it was run: as §2

ABA UFR153 = experiment: as above; format: cell-based, A. baumannii; details: substance alone
How it was run: as §2

ABA 107292 = experiment: as above; format: cell-based, A. baumannii; details: substance alone
How it was run: as §2

ABA UFR160 = experiment: as above; format: cell-based, A. baumannii; details: substance alone
How it was run: as §2

ABA UFR159 = experiment: as above; format: cell-based, A. baumannii; details: substance alone
How it was run: as §2

ABA UFR157 = experiment: as above; format: cell-based, A. baumannii; details: substance alone
How it was run: as §2

ABA 19606 = experiment: as above; format: cell-based, A. baumannii; details: substance alone
How it was run: as §2

ABA UFR156 = experiment: as above; format: cell-based, A. baumannii; details: substance alone
How it was run: as §2

ABA UFR161 = experiment: as above; format: cell-based, A. baumannii; details: substance alone
How it was run: as §2

[1] = Acinetobacter baumannii, read-out: MIC

In the case of `NC[C@H]1C=C(c2cnco2)[C@@H]2CN1C(=O)N2OS(=O)(=O)[O-].O=C(O)C(F)(F)F.[Na+]` (relative stereo) [Example 1, sodium and 2,2,2-trifluoroacetate [trans-2-(azaniumylmethyl)-4-oxazol-5-yl-7-oxo-1,6-diazabicyclo[3.2.1]oct-3-en-6-yl] sulfate], the FIC index min (PAE UFR90; compound +ATM) is reported as 0.54, the FIC index min (PAE UFR90; compound +FEP) is reported as 0.50 and the FIC index min (PAE UFR90; compound +FOS) is reported as 1.0. For the same compound, the FIC index min (PAE UFR90; compound +MEM) was 0.75, the FIC index min (PAE UFR90; compound +PIP) was 0.88 and the FIC index min (PAE UFR48; compound +ATM) was 0.25. The FIC index min (PAE UFR48; compound +FEP) was 0.53, the FIC index min (PAE UFR48; compound +FOS) was 0.62 and the FIC index min (PAE UFR48; compound +MEM) was 0.27. For the same compound, the FIC index min (PAE UFR48; compound +PIP) was 0.27, the FIC index min (ECO 190317; compound +ATM) was 0.51 and the FIC index min (ECO 190317; compound +FEP) was 0.49. For the same compound, the FIC index min (ECO 190317; compound +FOS) was 0.37, the FIC index min (ECO 190317; compound +MEM) was 0.63 and the FIC index min (ECO 190317; compound +PIP) was no more than 0.38. For the same compound, the FIC index min (KPN UFR68; compound +ATM) was no more than 0.023, the FIC index min (KPN UFR68; compound +FEP) was no more than 0.0088 and the FIC index min (KPN UFR68; compound +FOS) was no more than 0.126. It also gave an FIC index min (KPN UFR68; compound +MEM) of no more than 0.0098, an FIC index min (KPN UFR68; compound +PIP) of no more than 0.012 and an FIC index min (ECL P99; compound +ATM) of 0.50. The FIC index min (ECL P99; compound +FEP) was 0.47, the FIC index min (ECL P99; compound +FOS) was no more than 0.3125 and the FIC index min (ECL P99; compound +MEM) was 0.56. It also gave an FIC index min (ECL P99; compound +PIP) of 0.50, an MIC (ABA UFR151; [1]) greater than 32 µg/mL and an MIC (ABA UFR152; [1]) greater than 32 µg/mL. For the same compound, the MIC (ABA UFR158; [1]) was greater than 32 µg/mL, the MIC (ABA UFR153; [1]) was greater than 32 µg/mL and the MIC (ABA 107292; [1]) was greater than 32 µg/mL. For the same compound, the MIC (ABA UFR160; [1]) was greater than 32 µg/mL, the MIC (ABA UFR159; [1]) was greater than 32 µg/mL and the MIC (ABA UFR157; [1]) was greater than 32 µg/mL. It also gave an MIC (ABA 19606; [1]) greater than 32 µg/mL, an MIC (ABA UFR156; [1]) greater than 32 µg/mL and an MIC (ABA UFR161; [1]) greater than 32 µg/mL.
In the case of `O=C(O)C(F)(F)F.O=C1N2C[C@H](c3scnc3[C@H]2c2ncc[nH]2)N1OS(=O)(=O)[O-].[Na+]` (relative stereo) [Example 6, sodium and 2,2,2-trifluoroacetate [trans-7-(1H-imidazol-3-ium--2-yl)-9-oxo-3-thia-5,8,10-triaza-tricyclo[6.2.1.0^2,6]undeca-2(6),4-dien-10-yl]sulfate], the FIC index min (KPN UFR68; compound +ATM) is reported as 1.0, the FIC index min (KPN UFR68; compound +FEP) is reported as 1.0 and the FIC index min (KPN UFR68; compound +FOS) is reported as 0.28. For the same compound, the FIC index min (KPN UFR68; compound +MEM) was 0.50, the FIC index min (KPN UFR68; compound +PIP) was no more than 0.5 and the MIC (ABA UFR151) was 32 µg/mL. The MIC (ABA UFR152) was 32 µg/mL, the MIC (ABA UFR158) was 16 µg/mL and the MIC (ABA UFR153) was 16 µg/mL. It also gave an MIC (ABA 107292) greater than 32 µg/mL, an MIC (ABA UFR160) of 16 µg/mL and an MIC (ABA UFR159) greater than 32 µg/mL. The MIC (ABA UFR157) was 8 µg/mL, the MIC (ABA 19606) was 16 µg/mL and the MIC (ABA UFR156) was 16 µg/mL. The MIC (ABA UFR161) was 32 µg/mL.
Work on `NCCON=C1C[C@@H](C(N)=O)N2C[C@@H]1N(OS(=O)(=O)[O-])C2=O.[Na+]` [Example 2, sodium and 2,2,2-trifluoroacetate [(2S,5S)-4-(2-ammonium-ethoxyimino)-2-carbamoyl-7-oxo-1,6-diazabicyclo[3.2.1]octan-6-yl] sulfate] yielded an FIC index min (PAE UFR90; compound +ATM) of no more than 0.22, an FIC index min (PAE UFR90; compound +FEP) of no more than 0.28 and an FIC index min (PAE UFR90; compound +FOS) of no more than 0.63. It also gave an FIC index min (PAE UFR90; compound +MEM) of no more than 0.38, an FIC index min (PAE UFR90; compound +PIP) of no more than 0.15 and an FIC index min (PAE UFR48; compound +ATM) of 0.09. It also gave an FIC index min (PAE UFR48; compound +FEP) of 0.63, an FIC index min (PAE UFR48; compound +FOS) of 0.50 and an FIC index min (PAE UFR48; compound +MEM) of 0.8. It also gave an FIC index min (PAE UFR48; compound +PIP) of 0.31, an FIC index min (ECO 190317; compound +ATM) of 0.08 and an FIC index min (ECO 190317; compound +FEP) of no more than 0.06. For the same compound, the FIC index min (ECO 190317; compound +FOS) was 0.56, the FIC index min (ECO 190317; compound +MEM) was 0.50 and the FIC index min (ECO 190317; compound +PIP) was no more than 0.25. For the same compound, the FIC index min (KPN UFR68; compound +ATM) was 0.05, the FIC index min (KPN UFR68; compound +FEP) was no more than 0.0098 and the FIC index min (KPN UFR68; compound +FOS) was 0.25. It also gave an FIC index min (KPN UFR68; compound +MEM) of 0.03, an FIC index min (KPN UFR68; compound +PIP) of 0.09 and an FIC index min (ECL P99; compound +ATM) of 0.50. For the same compound, the FIC index min (ECL P99; compound +FEP) was 0.14, the FIC index min (ECL P99; compound +FOS) was no more than 0.14 and the FIC index min (ECL P99; compound +MEM) was 0.50. It also gave an FIC index min (ECL P99; compound +PIP) of 0.14, an MIC (ABA UFR151; [1]) greater than 32 µg/mL and an MIC (ABA UFR152; [1]) greater than 32 µg/mL. For the same compound, the MIC (ABA UFR158; [1]) was greater than 32 µg/mL, the MIC (ABA UFR153; [1]) was greater than 32 µg/mL and the MIC (ABA 107292; [1]) was greater than 32 µg/mL. The MIC (ABA UFR160; [1]) was greater than 32 µg/mL, the MIC (ABA UFR159; [1]) was greater than 32 µg/mL and the MIC (ABA UFR157; [1]) was greater than 32 µg/mL. It also gave an MIC (ABA 19606; [1]) of 16 µg/mL, an MIC (ABA UFR156; [1]) greater than 32 µg/mL and an MIC (ABA UFR161; [1]) greater than 32 µg/mL.
`O=C1N2CC(c3ncco3)=C[C@H](C2)N1OS(=O)(=O)[O-].[Na+]` [Example 9, sodium [(5R)-3-(oxazol-2-yl)-7-oxo-1,6-diazabicyclo[3.2.1]oct-3-en-6-yl] sulfate] showed an FIC index min (PAE UFR90; compound +ATM) of no more than 0.30, an FIC index min (PAE UFR90; compound +FEP) of no more than 0.27 and an FIC index min (PAE UFR90; compound +FOS) of no more than 0.52. The FIC index min (PAE UFR90; compound +MEM) was no more than 0.53, the FIC index min (PAE UFR90; compound +PIP) was no more than 0.23 and the FIC index min (PAE UFR48; compound +ATM) was 0.14. For the same compound, the FIC index min (PAE UFR48; compound +FEP) was 0.50, the FIC index min (PAE UFR48; compound +FOS) was 1.0 and the FIC index min (PAE UFR48; compound +MEM) was 0.8. It also gave an FIC index min (PAE UFR48; compound +PIP) of 0.32, an FIC index min (ECO 190317; compound +ATM) of 0.20 and an FIC index min (ECO 190317; compound +FEP) of no more than 0.07. For the same compound, the FIC index min (ECO 190317; compound +FOS) was 0.69, the FIC index min (ECO 190317; compound +MEM) was 0.58 and the FIC index min (ECO 190317; compound +PIP) was no more than 0.21. The FIC index min (KPN UFR68; compound +ATM) was no more than 0.27, the FIC index min (KPN UFR68; compound +FEP) was no more than 0.05 and the FIC index min (KPN UFR68; compound +FOS) was 0.50. The FIC index min (KPN UFR68; compound +MEM) was 0.15, the FIC index min (KPN UFR68; compound +PIP) was no more than 0.27 and the FIC index min (ECL P99; compound +ATM) was 0.53. For the same compound, the FIC index min (ECL P99; compound +FEP) was 0.23, the FIC index min (ECL P99; compound +FOS) was no more than 0.19 and the FIC index min (ECL P99; compound +MEM) was 0.88. It also gave an FIC index min (ECL P99; compound +PIP) of 0.20, an MIC (ABA UFR151; [1]) greater than 32 µg/mL and an MIC (ABA UFR152; [1]) greater than 32 µg/mL. For the same compound, the MIC (ABA UFR158; [1]) was greater than 32 µg/mL, the MIC (ABA UFR153; [1]) was greater than 32 µg/mL and the MIC (ABA 107292; [1]) was greater than 32 µg/mL. It also gave an MIC (ABA UFR160; [1]) greater than 32 µg/mL, an MIC (ABA UFR159; [1]) greater than 32 µg/mL and an MIC (ABA UFR157; [1]) greater than 32 µg/mL. For the same compound, the MIC (ABA 19606; [1]) was greater than 32 µg/mL, the MIC (ABA UFR156; [1]) was greater than 32 µg/mL and the MIC (ABA UFR161; [1]) was greater than 32 µg/mL.

— US20200024278A1, “COMPOSITION COMPRISING ANTIBIOTIC COMPOUND AND AN HETEROCYCLIC COMPOUND AND THEIR USE IN PREVENTING OR TREATING BACTERIAL INFECTIONS” (MUTABILIS, priority 2016, published 2020)
